Test results: publication PMC6890677, “Surface Grafted MSI-78A Antimicrobial Peptide has High Potential for Gastric Infection Management” (Scientific Reports, 2019)
Where no end group is shown, it is not given here.

What was measured:
H. pylori 26695 [1] = details: viability of the inoculum reduced by ≥99.9%, CFU on BA after 5 days, 2 replicates in 3 independent experiments
Protocol: (§1) H. pylori human strains J99 and 26695 (provided by Department of Medical Biochemistry and Biophysics, Umeå University, Sweden), NCTC 11637 (ATCC 43504) and mouse-adapted SS1 strain (provided by Unité de Pathogenèse de Helicobacter, Institut Pasteur, France) were grown following the standard procedure. Briefly, H. pylori was cultured in Blood Agar (BA; Oxoid) supplemented with 10% of defibrinated horse blood (Probiologica) and with an antibiotic cocktail (polymyxin B, vancomycin, amphotericin B, trimethoprim; all from Sigma-Aldrich) under microaerophilic conditions (<5% O2; GenBox System, BioMérieux) at 37 °C for 48 h. Afterwards, some colonies were streaked onto fresh BA medium and kept in culture in the same conditions for another 48 h. Subsequently, bacterial inoculum was adjusted to 0.03 optical density at 600 nm (OD600), which corresponds to approximately 1 × 10^7 colony forming units (CFUs)/mL[48]. Initial inoculum was confirmed by inoculation of 10 μL drops of the bacterial suspension onto BA and CFUs were counted after 5 days of incubation in the same above-mentioned settings.
(§2) The MBC was defined as the lowest AMP concentration that was able to diminish the viability of the initial bacterial inoculum by ≥99.9%. MBC determination followed the CLSI guidelines[49] but briefly, a 50 µL sample was taken from the first three lowest concentrations where no bacterial growth was observed (concentration corresponding to the MIC), serially diluted in PBS until 10^−6 and then spotted on BA. After 5 days of incubation at 37 °C in microaerophilic environment, the CFUs/mL were calculated. Two replicates of each AMP concentration were performed in three independent experiments.

H. pylori NTCC 11637 [2] = details: viability of the inoculum reduced by ≥99.9%, CFU on BA after 5 days, 2 replicates in 3 independent experiments
Protocol: as §1, §2

H. pylori J99 [3] = details: viability of the inoculum reduced by ≥99.9%, CFU on BA after 5 days, 2 replicates in 3 independent experiments
Protocol: as §1, §2

H. pylori SS1 [4] = details: H. pylori SS1 (mouse-adapted); MHB + 10% FBS, 37 °C, microaerophilic, 72 h; 2 replicates in 3 independent experiments
Protocol: as §1
(§3) The MICs of the AMPs (Table 1) against H. pylori strains were determined using the microbroth dilution method in Mueller Hinton Broth (MHB) supplemented with 10% of inactivated Fetal Bovine Serum (FBS; Gibco) and in accordance with the Clinical Laboratory Standards Institute (CLSI) guidelines. Briefly, AMPs were diluted in 0.01% of acetic acid with 0.2% Bovine Serum Albumin (BSA; Sigma) to allow AMP protonation and avoid its aggregation, respectively, following an already established protocol. The selected AMPs concentrations ranged from 2 µg/mL up to 512 µg/mL. Incubation was performed at 37 °C in microaerophilic conditions for 72 h. The MIC was defined as the first AMP concentration that prevented visible (naked eye) bacterial growth. Two replicates of each AMP concentration were performed in three independent experiments.

H. pylori 26695 [5] = details: MHB + 10% FBS, 37 °C, microaerophilic, 72 h, 2 replicates in 3 independent experiments
Protocol: as §1, §3

H. pylori NTCC 11637 [6] = details: MHB + 10% FBS, 37 °C, microaerophilic, 72 h, 2 replicates in 3 independent experiments
Protocol: as §1, §3

H. pylori J99 [7] = details: MHB + 10% FBS, 37 °C, microaerophilic, 72 h, 2 replicates in 3 independent experiments
Protocol: as §1, §3

H. pylori SS1 [8] = assay type: cell-based, Helicobacter pylori; details: H. pylori SS1 (mouse-adapted); viability of the inoculum reduced by ≥99.9%; CFU on BA after 5 days; 2 replicates in 3 independent experiments
Protocol: as §1, §2

S. epidermidis = assay: MIC of AMP in solution, adhesion control strain

Sequence	MBC (H. pylori 26695 [1]) [µg/mL]	MBC (H. pylori NTCC 11637 [2]) [µg/mL]	MBC (H. pylori J99 [3]) [µg/mL]	MIC (H. pylori SS1 [4]) [µg/mL]	MIC (H. pylori 26695 [5]) [µg/mL]	MIC (H. pylori NTCC 11637 [6]) [µg/mL]	MIC (H. pylori J99 [7]) [µg/mL]	MBC (H. pylori SS1 [8]) [µg/mL]	MIC (S. epidermidis) [µg/mL]
GIGKFLKKAKKFAKAFVKILKK [MSI-78A]	32	256	128	128	16	128	64	256	2
GIGKFLKKAKKFGKAFVKILKK [MSI-78]	128	>512	>512	128	64	256	256	>512	–
GLLRASSVWGRKYYVDLAGCAKA [Odorranain-HP]	>512	>512	>512	>512	>512	>512	>512	>512	–
